Measurements reported in the supplement of paper PMC9673313.

Compound: Clc1ccc2c(N3CCN(CCCN4CCN(c5ccnc6cc(Cl)ccc56)CC4)CC3)ccnc2c1 [piperaquine]
Procedure: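 Kenyan Plasmodium falciparum field isolates (2008-2021) were tested in a SYBR Green I growth-inhibition assay, either immediately ex vivo (fresh samples) or in vitro after culture adaptation. Cultures were at 1% parasitemia and 2% hematocrit, incubated with serial drug dilutions for 72 h at 37 °C (5% O2, 5% CO2), then read by fluorescence. IC50 was fitted by non-linear regression of the dose-response curve.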

Test System: MDH 10/10/0020
- IC50 growth inhibition: 16.8 ng/mL

Test System: 601-209
- IC50 growth inhibition: 64.6 ng/mL

Test System: KSI 15/04/732
- IC50 growth inhibition: 6.1 ng/mL

Test System: MGT 14/03/0007
- IC50 growth inhibition: 6.4 ng/mL

Test System: KOM 21/05/0265
- IC50 growth inhibition: 2.7 ng/mL

Test System: 601-0284
- IC50 growth inhibition: 17.6 ng/mL

Test System: KDH 15/06/1658
- IC50 growth inhibition: 20.5 ng/mL

Test System: 601-292
- IC50 growth inhibition: 32.2 ng/mL

Test System: KDH 21/05/0220
- IC50 growth inhibition: 2.5 ng/mL

Test System: KCH 13/9/226
- IC50 growth inhibition: 26.8 ng/mL

Test System: KDH 14/05/1400
- IC50 growth inhibition: 27 ng/mL

Test System: KCH 18/07/0001
- IC50 growth inhibition: 15.8 ng/mL

Test System: KSI 21/04/0059
- IC50 growth inhibition: 208 ng/mL

Test System: KSI 19/12/0048
- IC50 growth inhibition: 35.3 ng/mL

Test System: MDH 19/01/0029
- IC50 growth inhibition: 9.67 ng/mL

Test System: MDH 16/05/150
- IC50 growth inhibition: 1.67 ng/mL

Test System: KDH 21/02/0198
- IC50 growth inhibition: 34.5 ng/mL

Test System: KSI 9/06/0001
- IC50 growth inhibition: 504 ng/mL

Test System: KDH 14/05/1396
- IC50 growth inhibition: 26.7 ng/mL

Test System: KSI 12/08/285
- IC50 growth inhibition: 19.6 ng/mL

Test System: KCH19/06/0013
- IC50 growth inhibition: 14.6 ng/mL

Test System: 601-0189
- IC50 growth inhibition: 27.5 ng/mL

Test System: MGT 19/09/0054
- IC50 growth inhibition: 32.6 ng/mL

Test System: KDH 21/04/0218
- IC50 growth inhibition: 3 ng/mL

Test System: KOM 13/11/104
- IC50 growth inhibition: 17.5 ng/mL

Test System: MGT 21/08/0109
- IC50 growth inhibition: 0.4 ng/mL

Test System: KOM 13/08/0034
- IC50 growth inhibition: 23.2 ng/mL

Test System: KSI 18/09/0004
- IC50 growth inhibition: 8.35 ng/mL

Test System: KDH 12/11/923
- IC50 growth inhibition: 14.5 ng/mL

Test System: MGT 19/11/0063
- IC50 growth inhibition: 13.6 ng/mL

Test System: MDH 12/01/0067
- IC50 growth inhibition: 10.7 ng/mL

Test System: 601-226
- IC50 growth inhibition: 57.2 ng/mL

Test System: KSI 19/06/0032
- IC50 growth inhibition: 28.1 ng/mL

Test System: KDH 10/12/535
- IC50 growth inhibition: 11.4 ng/mL

Test System: KCH 15/10/339
- IC50 growth inhibition: 2.52 ng/mL

Test System: KOM 18/07/0004
- IC50 growth inhibition: 10.1 ng/mL

Test System: KDH 16/07/1826
- IC50 growth inhibition: 25.7 ng/mL

Test System: KOM 21/04/0219
- IC50 growth inhibition: 22.7 ng/mL

Test System: KOM 21/05/0280
- IC50 growth inhibition: 1.3 ng/mL

Test System: KOM 19/12/151
- IC50 growth inhibition: 16.9 ng/mL

Test System: KOM 14/03/189
- IC50 growth inhibition: 18 ng/mL

Test System: KSI 15/06/786
- IC50 growth inhibition: 14.6 ng/mL

Test System: 601-262
- IC50 growth inhibition: 112 ng/mL

Test System: KSI 16/08/916
- IC50 growth inhibition: 14.8 ng/mL

Test System: MDH 12/01/0063
- IC50 growth inhibition: 12 ng/mL

Test System: KDH 14/03/1351
- IC50 growth inhibition: 10.7 ng/mL

Test System: KDH 15/04/1616
- IC50 growth inhibition: 28 ng/mL

Test System: KOM 15/05/417
- IC50 growth inhibition: 1.45 ng/mL

Test System: KOM 18/07/0005
- IC50 growth inhibition: 8.89 ng/mL

Test System: KSI 16/07/907
- IC50 growth inhibition: 11.6 ng/mL

Test System: KSI 12/12/304
- IC50 growth inhibition: 24.4 ng/mL

Test System: KSI 21/04/0062
- IC50 growth inhibition: 10.2 ng/mL

Test System: KCH 17/09/373
- IC50 growth inhibition: 7.01 ng/mL

Test System: KSI 15/08/809
- IC50 growth inhibition: 7.78 ng/mL

Test System: KOM 20/01/0168
- IC50 growth inhibition: 15.7 ng/mL

Test System: KCH 14/10/281
- IC50 growth inhibition: 8.57 ng/mL

Test System: MGT 14/07/0033
- IC50 growth inhibition: 3.35 ng/mL

Test System: KOM 21/03/0256
- IC50 growth inhibition: 2.6 ng/mL

Test System: MDH 16/08/153
- IC50 growth inhibition: 7.62 ng/mL

Test System: KDH 15/01/1569
- IC50 growth inhibition: 4.62 ng/mL

Test System: KOM 21/05/0271
- IC50 growth inhibition: 2.1 ng/mL

Test System: 601-006
- IC50 growth inhibition: 16 ng/mL

Test System: KOM 21/08/0327
- IC50 growth inhibition: 28.3 ng/mL

Test System: KSI 10/9/111
- IC50 growth inhibition: 284 ng/mL

Test System: KOM 20/03/0184
- IC50 growth inhibition: 30.8 ng/mL

Test System: KDH 14/05/1397
- IC50 growth inhibition: 13.7 ng/mL

Test System: KCH 16/05/361
- IC50 growth inhibition: 5.83 ng/mL

Test System: MGT 14/03/0009
- IC50 growth inhibition: 62.4 ng/mL

Test System: MGT 13/11/0003
- IC50 growth inhibition: 22.9 ng/mL

Test System: KOM 19/12/0150
- IC50 growth inhibition: 9.09 ng/mL

Test System: KDH 16/07/1824
- IC50 growth inhibition: 51.2 ng/mL

Test System: KOM 16/08/0627
- IC50 growth inhibition: 6.7 ng/mL

Test System: KOM 14/04/222
- IC50 growth inhibition: 19.3 ng/mL

Test System: KOM 16/07/0610
- IC50 growth inhibition: 7.67 ng/mL

Test System: KDH 21/08/0250
- IC50 growth inhibition: 61.7 ng/mL

Test System: 601-0157
- IC50 growth inhibition: 6.8 ng/mL

Test System: KDH 21/02/0166
- IC50 growth inhibition: 76.8 ng/mL

Test System: MGT 14/03/0008
- IC50 growth inhibition: 27.2 ng/mL

Test System: MGT 17/11/133
- IC50 growth inhibition: 3.35 ng/mL

Test System: KOM 16/07/0620
- IC50 growth inhibition: 11.4 ng/mL

Test System: KDH 11/9/709
- IC50 growth inhibition: 550 ng/mL

Test System: KDH 16/07/1823
- IC50 growth inhibition: 20.2 ng/mL

Test System: KSI 10/09/099
- IC50 growth inhibition: 33.8 ng/mL

Test System: KOM 13/07/0010
- IC50 growth inhibition: 1.14 ng/mL

Test System: KDH 13/09/1180
- IC50 growth inhibition: 6.78 ng/mL

Test System: MGT 21/05/115
- IC50 growth inhibition: 6.2 ng/mL

Test System: 601-239
- IC50 growth inhibition: 15.6 ng/mL

Test System: KDH 15/06/1657
- IC50 growth inhibition: 9.96 ng/mL

Test System: KCH 10/04/099
- IC50 growth inhibition: 517 ng/mL

Test System: KCH 15/05/310
- IC50 growth inhibition: 73.4 ng/mL

Test System: KSI 13/10/422
- IC50 growth inhibition: 19.9 ng/mL

Test System: KDH 20/01/0159
- IC50 growth inhibition: 28.8 ng/mL

Test System: KDH 19/12/0155
- IC50 growth inhibition: 20.8 ng/mL

Test System: MGT 14/03/0012
- IC50 growth inhibition: 8.31 ng/mL

Test System: MDH 13/08/145
- IC50 growth inhibition: 24.8 ng/mL

Test System: MDH 18/09/0008
- IC50 growth inhibition: 3.25 ng/mL

Test System: MGT 18/08/0004
- IC50 growth inhibition: 1.64 ng/mL

Test System: 601-0260
- IC50 growth inhibition: 2460 ng/mL

Test System: MGT 14/08/034
- IC50 growth inhibition: 29.5 ng/mL

Test System: 601-257
- IC50 growth inhibition: 112 ng/mL

Test System: KSI 16/06/900
- IC50 growth inhibition: 33.3 ng/mL

Test System: MDH 12/01/0062
- IC50 growth inhibition: 19 ng/mL

Test System: KDH 16/07/1829
- IC50 growth inhibition: 2.72 ng/mL

Test System: MDH 10/8/0014
- IC50 growth inhibition: 1.39 ng/mL

Test System: KOM 21/03/267
- IC50 growth inhibition: 2.3 ng/mL

Test System: KOM 15/05/421 D42
- IC50 growth inhibition: 40.4 ng/mL

Test System: KDH 16/07/1831
- IC50 growth inhibition: 27.8 ng/mL

Test System: KCH 15/06/316
- IC50 growth inhibition: 31.3 ng/mL

Test System: KOM 15/03/383
- IC50 growth inhibition: 4.53 ng/mL

Test System: KOM 14/06/270
- IC50 growth inhibition: 17.1 ng/mL

Test System: MDH 18/08/003
- IC50 growth inhibition: 3.81 ng/mL

Test System: KDH 15/04/1619
- IC50 growth inhibition: 22.3 ng/mL

Test System: KCH 15/09/334
- IC50 growth inhibition: 2.43 ng/mL

Test System: KOM 20/01/0172
- IC50 growth inhibition: 18.4 ng/mL

Test System: KDH 10/11/521
- IC50 growth inhibition: 30 ng/mL

Test System: MGT 18/09/0013
- IC50 growth inhibition: 3.48 ng/mL

Test System: KOM 16/07/0609
- IC50 growth inhibition: 18.1 ng/mL

Test System: KSI 15/06/782
- IC50 growth inhibition: 25.5 ng/mL

Test System: KSI 15/10/831
- IC50 growth inhibition: 25.1 ng/mL

Test System: KOM 19/11/0147
- IC50 growth inhibition: 10.5 ng/mL

Test System: MDH 19/12/0045
- IC50 growth inhibition: 30.2 ng/mL

Test System: KDH 16/07/1828
- IC50 growth inhibition: 28.5 ng/mL

Test System: KDH 21/02/0167
- IC50 growth inhibition: 23.3 ng/mL

Test System: KCH 19/04/0010
- IC50 growth inhibition: 3.14 ng/mL

Test System: KCH 17/09/374
- IC50 growth inhibition: 4.92 ng/mL

Test System: KDH 14/05/1402
- IC50 growth inhibition: 11.9 ng/mL

Test System: KDH 12/10/909
- IC50 growth inhibition: 9.83 ng/mL

Test System: KOM 14/09/317
- IC50 growth inhibition: 15.9 ng/mL

Test System: KSI 16/07/912
- IC50 growth inhibition: 15.1 ng/mL

Test System: KCH 10/05/113
- IC50 growth inhibition: 8.58 ng/mL

Test System: KSI 13/1/307
- IC50 growth inhibition: 41 ng/mL

Test System: KOM 20/01/0174
- IC50 growth inhibition: 62 ng/mL

Test System: KSI 19/06/0027
- IC50 growth inhibition: 3.54 ng/mL

Test System: KOM 18/11/0045
- IC50 growth inhibition: 7.71 ng/mL

Test System: MGT 21/05/0116
- IC50 growth inhibition: 4.6 ng/mL

Test System: KDH 21/05/0225
- IC50 growth inhibition: 7.1 ng/mL

Test System: KOM 21/05/0277
- IC50 growth inhibition: 35.3 ng/mL

Test System: MGT 15/10/105
- IC50 growth inhibition: 19.7 ng/mL

Test System: KOM 21/03/0292
- IC50 growth inhibition: 13.7 ng/mL

Test System: KCH 13/1/192
- IC50 growth inhibition: 67.4 ng/mL

Test System: MGT 21/03/0108
- IC50 growth inhibition: 7.8 ng/mL

Test System: KOM 19/12/0149
- IC50 growth inhibition: 28.3 ng/mL

Test System: KCH 18/09/0003
- IC50 growth inhibition: 4.7 ng/mL
